# Data as given in paper PMC12326981, “Novel C5α-substituted carbapenems enhance Mycobacterium abscessus killing via selective target binding and reduced hydrolysis by BlaMab” (Antimicrobial Agents and Chemotherapy, 2025).
# Assays:
# [1] = system: C[C@@H](O)[C@H]1C(=O)N2C(C(=O)O)=C(S[C@@H]3CN[C@H](C(=O)N(C)C)C3)C[C@]12C; test: Steady-state kinetics of hydrolysis by BlaMab; format: biochemical, Mycobacterium abscessus; details: other: best-fit value (95% confidence interval), MES buffer pH 6.4, room temperature
# Mab ATCC 19977 [2] = test: MIC testing with drugs pre-incubated in 7H9 broth (effect of drug instability); format: cell-based, Mycobacterium abscessus; details: for MIC: Mycobacteroides abscessus, ATCC19977
# Description: (§1) MICs were determined in duplicate following Clinical Laboratory Standards Institute ([52]) guidelines using Middlebrook 7H9 broth supplemented with 10% (vol/vol) oleic acid-albumin-dextrose-catalase (OADC) and 0.05% (vol/vol) Tween 80, with an inoculum of 5 × 10⁵ CFU/mL. MIC testing of two C5α-substituted carbapenems was conducted both individually and in combination with cephalosporins (cefuroxime and ceftaroline), penicillins (amoxicillin), or BLIs (avibactam or durlobactam + sulbactam). Avibactam, durlobactam, cefuroxime, ceftaroline, and amoxicillin were fixed at concentrations of 4, 1, 2, 4, and 4 mg/L, respectively. Amoxicillin was combined with 4 mg/L avibactam, as it is highly susceptible to hydrolysis by BlaMab ([12], [15], [25]). The MIC was defined as the lowest antibiotic concentration that inhibited visible bacterial growth following 48 h of incubation at 30°C.
# PBP B = PBP B (Mycobacteroides abscessus, UniProt B1MP31); test: Apparent inhibition constant (nitrocefin, Dixon plot); format: biochemical; details: read-out: Ki,app (converted)
# Description: (§2) Steady-state kinetic studies with JDB/NA-1-157 and JDB/NA-1-208 were performed using purified LDTs and PBPs, including LDT1–5, PBP-B, PBP-lipo, and D,D-carboxypeptidase. The assays were conducted on a BioTek Synergy2 multimode reader equipped with Gen5 software. To determine the Michaelis constant (Km^NCF) for each LDT and PBP, a wide range of NCF concentrations was tested, while the enzyme concentrations were fixed. Absorbance changes at 482 nm were monitored over 10 min. Steady-state kinetic parameters (Vmax and Km) were derived by fitting the experimental data to the Henri–Michaelis–Menten equation using nonlinear least-squares regression in GraphPad Prism version 9. The reaction velocity (v) at a given substrate concentration ([S]) was calculated using equation 2: […]
# (§3) The apparent inhibition constants (Ki,app) for JDB/NA-1-157 and JDB/NA-1-208 were determined under the following conditions: an NCF concentration of 5 × Km, fixed concentrations of LDT or PBP enzymes, and varying concentrations of JDB/NA-1-157 and JDB/NA-1-208. Absorbance changes at 482 nm were monitored over a 30 min period for each inhibitor concentration. The data were linearized using a Dixon plot, which involves plotting the reciprocal of the absorbance change (1/ΔA) against the concentrations of JDB/NA-1-157 or JDB/NA-1-208. Apparent Ki,app values were derived from the intersection points on the Dixon plot and were subsequently corrected for substrate concentration and enzyme affinity using equation 3:
# (§4) (3) Ki,app=observed Ki,app/1+[NCF]/Km NCF.
# PonA2 = PonA2 (Mycobacteroides abscessus, UniProt B1MFV7); test: as above; format: biochemical, Mycobacterium abscessus; details: Ki,app
# Description: as §2, §3, §4
# LDT2 = LDT2 (Mycobacteroides abscessus, UniProt B1MMQ4); test: as above; format: biochemical, Mycobacterium abscessus; details: Ki,app
# Description: as §2, §3, §4
# LDT1 = LDT1 (Mycobacteroides abscessus, UniProt B1MDC1); test: as above; format: biochemical, Mycobacterium abscessus; details: Ki,app
# Description: as §2, §3, §4
# [3] = Thermal stability in 7H9 broth at 30°C; details: for Degradation percentage: 24 h
# Description: The stability of the two compounds in 7H9 broth was assessed at 30°C at drug concentrations of 10, 50, and 100 mg/L, with each condition tested in triplicate. Absorbance at 240 nm was measured every 2 h over a 24 h period using a BioTek Synergy2 multimode reader, with data analyzed via Gen5 software to monitor degradation or changes in stability. To evaluate the impact of thermal instability, MIC tests were performed using Mab ATCC 19977. Compounds were tested at time points of 0 h (no incubation) and 6, 24, and 48 h of incubation at 30°C. Imipenem and meropenem, known to be thermally unstable β-lactams, were included as positive controls. The MIC results were recorded after 48 h of incubation. Detailed MIC testing protocols were identical to those described below.
# PBP-lipo = molecular target: T1, PBP-lipo (Mycobacteroides abscessus, UniProt B1MDC3); test: Apparent inhibition constant (nitrocefin, Dixon plot); format: biochemical; details: Ki,app
# T1 construct: made in house; host or cells: Escherichia coli BL21 (DE3)
# Description: as §2, §3, §4
# [4] = system: Mab strain ATCC 19977 and three clinical isolates (Mab122, Mab686, and UH01); test: Static concentration time-kill (SCTK) assay; format: cell-based, Mycobacterium abscessus; details: imipenem alone (Fig. S1)
# Description: SCTK studies were conducted over 5 days in Middlebrook 7H9 broth supplemented with 10% (vol/vol) OADC, 0.2% (vol/vol) glycerol, and 0.05% (vol/vol) Tween 80 in duplicate. The efficacy of JDB/NA-1-157 and JDB/NA-208 was evaluated using Mab strain ATCC 19977 and three clinical isolates (Mab122, Mab686, and UH01) at an initial inoculum of 10^5.5–10^6.3 CFU/mL. […] Bacterial killing was assessed across a wide range of concentrations for JDB/NA-1-157 and JDB/NA-1-208 individually (0.0625–64.0 mg/L).
# For the combination study, the concentrations of JDB/NA-1-157 and JDB/NA-1-208 were selected based on MIC results and time-killing profiles of the single-drug study, while the concentrations of other β-lactams and BLIs were chosen based on clinically relevant levels, determined from the predicted average unbound steady-state concentrations (fCss,avg) in plasma at clinically relevant doses ([27]). The drug concentrations used were JDB/NA-1-157, 1 mg/L; JDB/NA-1-208, 8 mg/L; imipenem, 12 mg/L; ceftaroline, 8 mg/L; cefuroxime, 8 mg/L; amoxicillin, 2 mg/L; avibactam, 4 mg/L; durlobactam, 12 mg/L; amikacin, 12 mg/L; clarithromycin, 0.3 mg/L; and cefoxitin, 7 mg/L. The SOC regimen was included for comparison of efficacy. On day 3, the broth was replaced with fresh broth containing the corresponding drug concentrations. For viable cell counts, 100 µL of undiluted or appropriately diluted samples was subcultured on Middlebrook 7H10 agar plates supplemented with 1% (vol/vol) OADC, 0.2% glycerol, and 0.05% (vol/vol) Tween 80. All samples were washed twice with sterile 0.9% saline prior to serial dilution or plating.
# LDT5 = LDT5 (Mycobacteroides abscessus, UniProt B1MHQ4); test: Apparent inhibition constant (nitrocefin, Dixon plot); format: biochemical, Mycobacterium abscessus; details: read-out: Ki,app
# Description: as §2, §3, §4
# Mab ATCC 19977 [5] = test: MIC testing against Mab ATCC 19977, single agent and combinations; format: cell-based, Mycobacterium abscessus
# Description: as §1, with “Amoxicillin was combined with 4 mg/L avibactam, as it is highly susceptible to hydrolysis by BlaMab ([12], [15], [25]).” left out
# [6] = drug incubated 6 h in 7H9 broth at 30°C
# [7] = drug incubated 24 h in 7H9 broth at 30°C
# [8] = drug incubated 48 h in 7H9 broth at 30°C
# [9] = Mycobacteroides abscessus, ATCC19977, 48 h, alone (single agent), read-out: MIC
# PBP B, sequence (B1MP31 entry or part of it): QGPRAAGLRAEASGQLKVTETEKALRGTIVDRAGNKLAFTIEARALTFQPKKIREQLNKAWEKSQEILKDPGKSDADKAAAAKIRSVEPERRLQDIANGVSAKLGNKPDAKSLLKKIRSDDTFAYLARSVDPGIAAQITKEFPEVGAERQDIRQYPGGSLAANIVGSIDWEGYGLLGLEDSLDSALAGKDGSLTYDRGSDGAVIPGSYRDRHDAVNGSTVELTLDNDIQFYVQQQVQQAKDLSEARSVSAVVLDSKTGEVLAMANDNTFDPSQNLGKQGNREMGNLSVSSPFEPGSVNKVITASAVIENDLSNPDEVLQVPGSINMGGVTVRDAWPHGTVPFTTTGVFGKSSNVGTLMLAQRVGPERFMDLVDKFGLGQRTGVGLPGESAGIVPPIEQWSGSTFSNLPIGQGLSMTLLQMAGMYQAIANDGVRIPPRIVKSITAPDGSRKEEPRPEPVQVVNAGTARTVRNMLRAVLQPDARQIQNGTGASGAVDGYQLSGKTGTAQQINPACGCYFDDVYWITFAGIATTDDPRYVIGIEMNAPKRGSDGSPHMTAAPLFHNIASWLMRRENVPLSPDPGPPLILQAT
# PonA2, sequence (B1MFV7 entry or part of it): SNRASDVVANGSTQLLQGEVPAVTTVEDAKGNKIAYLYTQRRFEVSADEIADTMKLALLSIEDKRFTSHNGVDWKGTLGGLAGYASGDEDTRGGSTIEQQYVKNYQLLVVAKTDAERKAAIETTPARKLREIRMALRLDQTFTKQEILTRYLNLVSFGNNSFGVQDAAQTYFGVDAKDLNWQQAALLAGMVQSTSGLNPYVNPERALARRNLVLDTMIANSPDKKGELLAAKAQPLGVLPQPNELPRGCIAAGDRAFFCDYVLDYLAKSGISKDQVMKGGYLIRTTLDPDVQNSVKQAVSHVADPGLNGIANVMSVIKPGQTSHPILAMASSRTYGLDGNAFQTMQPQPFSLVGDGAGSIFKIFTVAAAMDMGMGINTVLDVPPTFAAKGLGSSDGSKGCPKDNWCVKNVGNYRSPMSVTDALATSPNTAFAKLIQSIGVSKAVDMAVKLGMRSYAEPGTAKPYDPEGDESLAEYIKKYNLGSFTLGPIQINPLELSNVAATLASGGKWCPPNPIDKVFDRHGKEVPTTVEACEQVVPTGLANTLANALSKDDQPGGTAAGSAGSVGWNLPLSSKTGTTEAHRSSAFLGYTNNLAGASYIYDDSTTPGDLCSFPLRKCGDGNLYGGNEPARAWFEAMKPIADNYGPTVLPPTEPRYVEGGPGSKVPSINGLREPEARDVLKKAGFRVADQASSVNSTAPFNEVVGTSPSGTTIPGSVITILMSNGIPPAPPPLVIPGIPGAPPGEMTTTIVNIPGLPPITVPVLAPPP
# LDT2, sequence (B1MMQ4 entry or part of it): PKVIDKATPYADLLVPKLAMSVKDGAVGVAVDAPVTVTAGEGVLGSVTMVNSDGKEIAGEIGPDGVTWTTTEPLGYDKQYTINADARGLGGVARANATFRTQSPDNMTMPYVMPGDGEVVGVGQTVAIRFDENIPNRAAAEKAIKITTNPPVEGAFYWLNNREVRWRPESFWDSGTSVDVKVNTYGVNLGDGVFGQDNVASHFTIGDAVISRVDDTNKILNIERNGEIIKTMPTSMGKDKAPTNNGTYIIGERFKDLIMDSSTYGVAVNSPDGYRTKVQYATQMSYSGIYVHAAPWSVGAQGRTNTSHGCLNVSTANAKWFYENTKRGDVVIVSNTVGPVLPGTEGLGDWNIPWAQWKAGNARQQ
# T1 sequence (B1MDC3 entry or part of it): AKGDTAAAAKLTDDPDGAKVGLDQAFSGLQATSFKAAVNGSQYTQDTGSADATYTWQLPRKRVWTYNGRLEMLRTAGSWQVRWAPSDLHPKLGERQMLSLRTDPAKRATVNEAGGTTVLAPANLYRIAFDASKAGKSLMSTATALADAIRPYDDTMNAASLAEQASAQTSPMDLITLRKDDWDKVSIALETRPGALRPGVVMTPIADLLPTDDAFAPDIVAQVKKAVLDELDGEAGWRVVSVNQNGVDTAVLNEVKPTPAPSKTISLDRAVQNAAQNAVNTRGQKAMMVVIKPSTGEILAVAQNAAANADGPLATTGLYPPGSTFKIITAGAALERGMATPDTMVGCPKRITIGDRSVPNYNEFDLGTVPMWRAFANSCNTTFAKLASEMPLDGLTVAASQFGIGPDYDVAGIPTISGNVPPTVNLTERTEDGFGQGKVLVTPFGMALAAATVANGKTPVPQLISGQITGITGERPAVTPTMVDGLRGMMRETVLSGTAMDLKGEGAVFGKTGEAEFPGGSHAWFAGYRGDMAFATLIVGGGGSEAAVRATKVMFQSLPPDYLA
# LDT1, sequence (B1MDC1 entry or part of it): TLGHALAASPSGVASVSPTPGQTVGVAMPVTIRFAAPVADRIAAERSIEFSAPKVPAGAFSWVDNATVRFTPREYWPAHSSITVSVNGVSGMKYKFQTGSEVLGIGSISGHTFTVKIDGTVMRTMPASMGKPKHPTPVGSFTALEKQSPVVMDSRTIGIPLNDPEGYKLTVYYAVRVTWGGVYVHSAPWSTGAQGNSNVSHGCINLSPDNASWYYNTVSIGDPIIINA
# LDT5, sequence (B1MHQ4 entry or part of it): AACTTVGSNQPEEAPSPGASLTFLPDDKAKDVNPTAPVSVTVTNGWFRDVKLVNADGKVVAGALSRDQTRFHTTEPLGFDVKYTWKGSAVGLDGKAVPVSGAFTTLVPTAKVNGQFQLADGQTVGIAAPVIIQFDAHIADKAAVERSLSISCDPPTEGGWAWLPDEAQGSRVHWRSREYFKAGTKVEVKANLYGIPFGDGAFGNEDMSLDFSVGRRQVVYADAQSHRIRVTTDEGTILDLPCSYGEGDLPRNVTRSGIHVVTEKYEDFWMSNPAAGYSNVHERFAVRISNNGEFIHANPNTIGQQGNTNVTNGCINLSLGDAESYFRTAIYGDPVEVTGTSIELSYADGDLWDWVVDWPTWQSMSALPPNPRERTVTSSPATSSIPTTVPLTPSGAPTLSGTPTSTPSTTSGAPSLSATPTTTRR
compound,measurement,setting,value
BlaMab (Mycobacteroides abscessus ATCC 19977),Km,[1],9.054 (3.677–17.50) µM
same,kcat,[1],0.03 s⁻¹
same,kcat/Km,[1],3000 M⁻¹ s⁻¹
"C[C@@H](O)[C@H]1C(=O)N2C(C(=O)O)=C(S[C@@H]3CN[C@H](C(=O)N(C)C)C3)[C@H](C)[C@H]12 [MEM, meropenem]",MIC,Mab ATCC 19977 [2]; [6],4 µg/mL
same,MIC,Mab ATCC 19977 [2]; [7],16 µg/mL
same,MIC,Mab ATCC 19977 [2]; [8],16 µg/mL
same,MIC,Mab ATCC 19977 [2]; no incubation of drug,4 µg/mL
same,MIC rise after 24 and 48 h incubation vs nonincubated,Mab ATCC 19977 [2]; drug incubated 24 and 48 h,fourfold
same,Ki,PBP B,965 nM
same,Ki,PonA2,143 nM
same,Ki,LDT2,31.3 nM
same,Ki,LDT1,206 nM
same,Degradation percentage,[3]; 10 mg/L,11.7%
same,Degradation percentage,[3]; 50 mg/L,15.8%
same,Degradation percentage,[3]; 100 mg/L,16.1%
"C[C@@H](O)[C@H]1C(=O)N2C(C(=O)O)=C(SCCN=CN)C[C@H]12 [IPM, imipenem]",MIC,Mab ATCC 19977 [2]; [6],1 µg/mL
same,MIC,Mab ATCC 19977 [2]; [7],32 µg/mL
same,MIC,Mab ATCC 19977 [2]; [8],> 64 µg/mL
same,MIC,Mab ATCC 19977 [2]; no incubation of drug,1 µg/mL
same,MIC fold increase after 24 h incubation,Mab ATCC 19977 [2]; drug incubated 24 h,32 fold
same,MIC fold increase after 48 h incubation,Mab ATCC 19977 [2]; drug incubated 48 h,> 64 fold
same,Ki,PBP-lipo,1840 nM
same,Ki,PBP B,1470 nM
same,log10 reduction in bacterial load,[4],~1.5 log10
same,Ki,PonA2,3140 nM
same,Ki,LDT5,100 µM
same,additional degradation by 24 h,[3],approximately 25%
same,degradation within the first 6 h,[3],approximately 25%
same,half-life,[3]; 7H9 broth,600 min
same,Degradation percentage,[3]; 10 mg/L,67.8%
same,Degradation percentage,[3]; 50 mg/L,51.4%
same,Degradation percentage,[3]; 100 mg/L,49.3%
"CC1(C)S[C@@H]2[C@H](NC(=O)[C@H](N)c3ccc(O)cc3)C(=O)N2[C@H]1C(=O)O [AMX, amoxicillin, reference compound]",MIC,Mab ATCC 19977 [5]; [9],128 µg/mL
same,MIC,"Mab ATCC 19977 [5]; no carbapenem, with AVI",32 µg/mL
"CO/N=C(\C(=O)N[C@@H]1C(=O)N2C(C(=O)O)=C(COC(N)=O)CS[C@H]12)c1ccco1 [CXM, cefuroxime, reference compound]",MIC,Mab ATCC 19977 [5]; [9],4 µg/mL
"CCO/N=C(\C(=O)N[C@@H]1C(=O)N2C(C(=O)[O-])=C(Sc3nc(-c4cc[n+](C)cc4)cs3)CS[C@H]12)c1nsc(N)n1 [CFT, ceftaroline, reference compound]",MIC,Mab ATCC 19977 [5]; [9],16 µg/mL
"NC(=O)[C@@H]1CC[C@@H]2CN1C(=O)N2OS(=O)(=O)O [AVI, avibactam, reference compound]",MIC,Mab ATCC 19977 [5]; [9],> 128 µg/mL
"CC1=C[C@@H]2CN(C(=O)N2OS(=O)(=O)O)[C@@H]1C(N)=O [DUR, durlobactam, reference compound]",MIC,Mab ATCC 19977 [5]; [9],8 µg/mL
